Test results: patent publication US6335443B1, “Chemical synthesis of exochelins” (Keystone Biomedical, Inc., priority 1998, dated 2002)

Columns and labels:
[1] = biological target: T1, 40% iron-saturated human transferrin (Homo sapiens, UniProt P02787); assay: Capacity to remove iron from 40% iron-saturated human transferrin; type: biochemical
[2] = Capacity to chelate iron from ferric ammonium citrate solution (reverse-phase HPLC, 450 nm); type: binding; conditions: for ferri-exochelin eluted from the HPLC column, % of the Exochelin added: absence of ferric ammonium citrate; for capacity to chelate iron (in words): ferric iron in solution; for exochelin eluted from the column in the ferri form: presence of ferric ammonium citrate, 10-fold molar excess of iron
Protocol: A. Capacity to Chelate Iron. To determine if the synthetic desferri-Exochelin 772SM(R) could chelate iron, as does the native form, the Exochelin was dissolved in 0.1% TFA containing ferric ammonium citrate at a 10-fold molar excess of iron to Exochelin. The solution was then loaded on a Bondapak Phenyl 125 Å 10 μm (3.9×300 mm) HPLC column and the Exochelin was subjected to reverse-phase HPLC (High Pressure Liquid Chromatography) on a Rainin (Woburn, Mass.) HPXL system. The Exochelin was eluted with a 0-100% gradient of a buffer consisting of 0.1% TFA and 50% acetonitrile at a flow rate of 1 ml/min. The ferri-exochelins were monitored at 220-nm and 450-nm absorbance. The mass of ferri-exochelin was assayed by measuring the area under the peak at 450-nm and applying a conversion factor derived from assaying known amounts of ferri-exochelin 772SM(R).
A. Capacity to Chelate Iron. The capacity of synthetic Exochelin 772SM(S) to chelate iron from a solution containing a 10-fold molar excess of ferric iron (ferric ammonium citrate) was assayed as described above.

[3] = biological target: T1, 40% iron-saturated human transferrin; assay: Capacity to remove iron from 40% iron-saturated human transferrin; type: biochemical; conditions: Fe3+:desferri-Exochelin 10:1, PBS pH 7.4
Protocol: (§1) A. 40% Iron-Saturated Human Transferrin. To assess the capacity of the 3 different desferri-Exochelins to remove iron from 40% iron-saturated human transferrin, each of them was incubated for 1, 3, and 24 hours with 40% iron-saturated transferrin such that the ratio of Fe^3+: desferri-Exochelin equaled 10:1. The incubation was carried out in PBS, pH 7.4. Afterwards, the Exochelin and transferrin were separated from each other by centrifugation through a 10,000 dalton cut-off filter. The transferrin (mass 76,000 daltons) was completely excluded by this filter whereas 85% of the Exochelin (mass<1,000) was recovered in the filtrate. To determine the total amount of exochelin recovered, the exochelin in the filtrate was saturated with a 20:1 molar excess of ferric ammonium citrate and subjected to reverse-phase HPLC as described above. To determine the amount of iron-saturated Exochelin in the filtrate at each time point, the filtrate was subjected to reverse-phase HPLC without the addition of iron. The % iron-saturation was calculated as follows: [formula]

[4] = biological target: human apotransferrin (<0.7% iron-saturated) (Homo sapiens, UniProt P02787); assay: Control incubation with human apotransferrin (<0.7% iron-saturated); type: biochemical; conditions: apotransferrin 38 mg/ml
Protocol: as §1
C. Apotransferrin (<0.7% Iron-Saturated Human Transferrin). As a control, the three desferri-exochelins were incubated for 3 h and 24 h with human apotransferrin (<0.7% iron-saturated) at a concentration of 38 mg/ml, the same concentration of protein as in the study utilizing 92% iron-saturated transferrin in B above. None of the desferri-exochelins acquired appreciable amounts of iron (Table 6).

ferri-Exochelin 758SM = assay: Capacity to remove iron from Ferri-Exochelin 758SM in the same vial (772SM(R) vs 772SM(S)); type: binding; conditions: Table 3; for % Iron-Saturation 0 hour / % Iron-Saturation 1 hour: 772SM(R), 772SM(S) and 758SM in the same vial; for % of Calculated Iron-Saturation at Equilibrium 0 hour / % of Calculated Iron-Saturation at Equilibrium 1 hour: same vial, assuming comparable affinities
Protocol: To further assess the relative affinities of the stereoisomers desferri-Exochelin 772SM(R) and 772SM(S) for iron, their capacity to remove iron from a different exochelin species in the same vial were compared.
In the experiment,15.6 μg of 1.1% iron-saturated synthetic Exochelin 772SM(R) and 17.4 μg of 1.0% iron-saturated synthetic Exochelin 772SM(S) was mixed with 13.5 μg of 100% iron-saturated native Exochelin 758SM.

[5] = biological target: holo-transferrin (92% iron-saturated human transferrin) (Homo sapiens, UniProt P02787); assay: Capacity to remove iron from holo-transferrin (92% iron-saturated human transferrin); type: biochemical; conditions: Fe3+:desferri-Exochelin 10:1
Protocol: as §1
B. Holo-Transferrin (92% Iron-Saturated Human Transferrin). To assess the capacity of the 3 different desferri-Exochelins to remove iron from holo-transferrin (92% iron-saturated human transferring, each of them was incubated for 1, 3, and 24 h with 92% iron-saturated transferrin such that the ratio of Fe^3+: desferri-Exochelin equaled 10:1, as in the aforementioned study with 40% iron-saturated transferrin. The % iron-saturation of the Exochelins was assayed as above.

[6] = listed as synthetic desferri-Exochelin 772SM(R)
[7] = listed as synthetic desferri-exochelin 772SM(R)
[8] = listed as Synthetic Desferri-Exochelin 772SM(R)
[9] = listed as synthetic Exochelin 772SM(R)
[10] = listed as Synthetic Desferri-Exochelin 7728M(R)
[11] = listed as synthetic Exochelin 772SM(S)
[12] = listed as Synthetic Desferri-Exochelin 772SM(S)
[13] = listed as synthetic desferri-exochelin 772SM(S)

holo-transferrin (92% iron-saturated human transferrin), sequence (P02787 20-698): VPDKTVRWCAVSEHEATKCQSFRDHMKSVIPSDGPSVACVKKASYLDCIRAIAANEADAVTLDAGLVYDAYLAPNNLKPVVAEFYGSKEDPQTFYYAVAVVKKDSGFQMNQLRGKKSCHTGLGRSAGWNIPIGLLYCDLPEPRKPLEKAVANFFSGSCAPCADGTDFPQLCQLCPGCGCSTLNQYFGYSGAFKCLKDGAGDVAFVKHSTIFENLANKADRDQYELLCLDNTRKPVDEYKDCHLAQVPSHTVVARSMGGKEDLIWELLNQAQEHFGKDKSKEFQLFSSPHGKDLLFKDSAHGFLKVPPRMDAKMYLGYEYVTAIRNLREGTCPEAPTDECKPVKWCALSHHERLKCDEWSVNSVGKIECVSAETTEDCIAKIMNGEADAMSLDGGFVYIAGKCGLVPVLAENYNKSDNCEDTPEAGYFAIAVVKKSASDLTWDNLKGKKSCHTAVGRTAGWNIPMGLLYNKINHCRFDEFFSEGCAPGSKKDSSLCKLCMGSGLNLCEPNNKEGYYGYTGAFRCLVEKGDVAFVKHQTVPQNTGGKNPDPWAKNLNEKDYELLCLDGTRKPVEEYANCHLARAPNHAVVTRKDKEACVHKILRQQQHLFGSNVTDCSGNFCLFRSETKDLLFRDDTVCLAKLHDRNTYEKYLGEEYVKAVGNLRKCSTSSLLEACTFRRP
human apotransferrin (<0.7% iron-saturated), sequence (P02787 20-698): as above
T1 sequence (P02787 20-698): as above

Structure (SMILES): COC(=O)CCCCCC(=O)N(O)CCCCC(NC(=O)C1COC(c2ccccc2O)=N1)C(=O)OC(C)CC(=O)NC1CCCCN(O)C1=O [Synthetic 772SM(R), Exochelin 772SM(R)]
- Iron-Saturation 0 h ([1]; Fe3+:desferri-Exochelin 10:1, PBS pH 7.4, listed as Synthetic Desferri-Exochelin 772SM(R)): 1.1%
- ferri-exochelin eluted from the HPLC column, % of the Exochelin added [2, 6]: 1.08%
- capacity to chelate iron (in words) [2, 7]: rapidly chelates ferric iron in solution
- exochelin eluted from the column in the ferri form [2, 6]: 100%
- Iron-Saturation 1 h [3, 8]: 6.8%
- Iron-Saturation 3 h [3, 8]: 12.8%
- Iron-Saturation 24 h [3, 8]: 39.2%
- Iron-Saturation 24 h [3, 7]: 39.2%
- Iron-Saturation 0 h [4, 8]: 1.1%
- Iron-Saturation 3 h [4, 8]: 5.2%
- Iron-Saturation 24 h [4, 8]: 6.9%
- % Iron-Saturation 0 hour (ferri-Exochelin 758SM): 1.1%
- % of Calculated Iron-Saturation at Equilibrium 0 hour (ferri-Exochelin 758SM): 3.7%
- % Iron-Saturation 1 hour (ferri-Exochelin 758SM): 28.2%
- % Iron-Saturation 1 hour (ferri-Exochelin 758SM; [9]): 28.2%
- % of Calculated Iron-Saturation at Equilibrium 1 hour (ferri-Exochelin 758SM): 94.3%
- % of Calculated Iron-Saturation at Equilibrium 1 hour (ferri-Exochelin 758SM; [9]): 94.3%
- Iron-Saturation 0 h [5, 10]: 1.1%
- Iron-Saturation 1 h [5, 10]: 13.6%
- Iron-Saturation 3 h [5, 10]: 31.5%
- Iron-Saturation 24 h [5, 10]: 60.0%
- Iron-Saturation 24 h [5, 7]: 60.0%

Structure (SMILES): COC(=O)CCCCCC(=O)N(O)CCCCC(NC(=O)C1COC(c2ccccc2O)=N1)C(=O)OC(C)CC(=O)NC1CCCCN(O)C1=O [Synthetic 772SM(S), Exochelin 772SM(S)]
- Iron-Saturation 0 h ([1]; Fe3+:desferri-Exochelin 10:1, PBS pH 7.4, listed as Synthetic Desferri-Exochelin 772SM(S)): 1.0%
- ferri-exochelin eluted from the HPLC column, % of the Exochelin added [2, 11]: 1.03%
- capacity to chelate iron (in words) ([2]; listed as synthetic desferri-Exochelin 772SM(S)): rapidly chelates iron in solution
- exochelin eluted from the column in the ferri form [2, 11]: fully saturated with iron
- Iron-Saturation 1 h [3, 12]: 14.2%
- Iron-Saturation 3 h [3, 12]: 13.8%
- Iron-Saturation 24 h [3, 12]: 35.3%
- Iron-Saturation 24 h [3, 13]: 35.3%
- Iron-Saturation 0 h [4, 12]: 1.0%
- Iron-Saturation 3 h [4, 12]: 5.0%
- Iron-Saturation 24 h [4, 12]: 4.1%
- % Iron-Saturation 0 hour (ferri-Exochelin 758SM): 1.0%
- % of Calculated Iron-Saturation at Equilibrium 0 hour (ferri-Exochelin 758SM): 3.3%
- % Iron-Saturation 1 hour (ferri-Exochelin 758SM): 25.9%
- % Iron-Saturation 1 hour (ferri-Exochelin 758SM; listed as Exochelin 772SM(S)): 25.9%
- % of Calculated Iron-Saturation at Equilibrium 1 hour (ferri-Exochelin 758SM): 86.6%
- % of Calculated Iron-Saturation at Equilibrium 1 hour (ferri-Exochelin 758SM; listed as Exochelin 772SM(S)): 86.6%
- Iron-Saturation 0 h [5, 12]: 1.0%
- Iron-Saturation 1 h [5, 12]: 18.1%
- Iron-Saturation 3 h [5, 12]: 15.5%
- Iron-Saturation 24 h [5, 12]: 47.2%
- Iron-Saturation 24 h [5, 13]: 47.2%
